The text below walks through data of patent US12577247B2 (BUGWORKS RESEARCH, INC., priority 2021, dated 2026).

The target in one assay is T1, A2A receptor (Homo sapiens, UniProt P29274).
T1 construct: host or cells: HEK-293
Put plainly: A2aR antagonism IC50, cAMP TR-FRET in HEK-293 cells, high concentration of adenosine (30 μM).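 Also: compounds added 10 min before adenosine, then 30 min stimulation at room temperature in buffer with 100 µM rolipram and 30 µM EHNA, signal read 1 h after detection reagents.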 Particulars: HEK-293 cells expressing A2A receptor; agonist adenosine 30 μM; 2% HSA; inhibition of cAMP; read-out: A2AR IC50 (nM) (@30 μM Adenosine). It counts as cell-based.

For another assay, the target named is T2, A2B receptor (Homo sapiens, UniProt P29275).
T2 sequence (P29275 1-332): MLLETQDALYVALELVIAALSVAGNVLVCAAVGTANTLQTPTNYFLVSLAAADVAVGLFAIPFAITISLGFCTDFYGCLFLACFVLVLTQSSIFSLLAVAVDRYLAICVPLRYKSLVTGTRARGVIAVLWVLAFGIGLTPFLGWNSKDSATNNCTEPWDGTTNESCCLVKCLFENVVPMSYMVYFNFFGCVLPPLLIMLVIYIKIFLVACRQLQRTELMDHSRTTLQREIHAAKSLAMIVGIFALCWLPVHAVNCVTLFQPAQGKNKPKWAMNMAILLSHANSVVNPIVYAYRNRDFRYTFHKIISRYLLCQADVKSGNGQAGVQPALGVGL
Put plainly: A2bR antagonism IC50, cAMP TR-FRET in HEK-293 cells, high concentration of adenosine (30 μM).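 Also: compounds preincubated 10 min with cells, then adenosine stimulation 30 min at room temperature in buffer with Rolipram 100 µM and EHNA 30 µM, TR-FRET read after 1 h.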 Particulars: A2BR IC50 (nM) (@30 μM Adenosine), HEK-293 cells expressing A2B receptor; agonist adenosine 30 μM; 2% HSA; inhibition of cAMP.

T1 sequence (P29274 whole entry): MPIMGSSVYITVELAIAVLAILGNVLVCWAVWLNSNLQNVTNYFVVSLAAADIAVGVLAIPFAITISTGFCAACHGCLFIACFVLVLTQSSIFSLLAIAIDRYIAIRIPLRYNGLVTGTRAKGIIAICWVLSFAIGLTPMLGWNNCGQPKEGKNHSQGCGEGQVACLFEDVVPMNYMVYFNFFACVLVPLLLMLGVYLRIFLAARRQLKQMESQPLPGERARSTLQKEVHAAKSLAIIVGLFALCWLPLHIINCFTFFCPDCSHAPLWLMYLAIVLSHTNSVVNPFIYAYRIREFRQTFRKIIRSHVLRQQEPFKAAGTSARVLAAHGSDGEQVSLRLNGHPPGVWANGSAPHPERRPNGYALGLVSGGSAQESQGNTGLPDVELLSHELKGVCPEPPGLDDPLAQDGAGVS
Procedure for A2A receptor: A Time-Resolved Fluorescence Energy Transfer (TR-FRET) assay was used to show the inhibition of this cAMP production in HEK cells upon treatment with compounds of the Formula I of the present disclosure.
HEK-293 cells expressing A2A receptor (#ES-011-C) or A2B receptor (#ES 013-C) were obtained from PerkinElmer. Cells were maintained in DMEM medium supplemented with 10% FBS and 200 μg/mL of G418 at 37° C. and 5% CO2. The cells were cultured in antibiotic free medium for a period of 16-20 hours prior to the assay. All subsequent steps of the assay are performed at room temperature (22-24° C.). […] About 1500 cells per well were pre-incubated for 10 minutes with the compounds of the present invention before adding the agonist Adenosine at a high concentration (30 μM) for a total stimulation time of 30 minutes. […] The assays were conducted in a stimulation buffer containing 1×DMEM, 5 mM HEPES, 2% Human serum albumin (HSA), 100 μM Rolipram and 30 μM erythro-9-(2-hydroxy-3-nonyl) adenine (EHNA). Serial dilutions of compounds were made in stimulation buffer to achieve a final concentration of high micromolar in a reaction volume of 10 μL. The total reaction volume was 10 μL (5 μL of cells, 2.5 μL of antagonist and 2.5 μL of agonist). […] The stimulation was ended, and the reaction completed by adding 5 μL of 4× Eu-cAMP tracer working solution and 5 μL of 4× ULight-anti-cAMP working solution. The TR FRET signal was measured after 1-hour incubation using a Tecan M1000 or a PerkinElmer Victor Nivo plate reader.

On to `CCc1c(C)nn2c(N)c(C#N)c(NCCc3cccn(CC[S+](C)[O-])c3=O)nc12` (racemic) [Example 143, Racemic (+−)7-amino-3-ethyl-2-methyl-5-((2-(1-(2-(methylsulfinyl)ethyl)-2-oxo-1,2-dihydropyridin-3-yl)ethyl)amino) pyrazolo[1,5-a]pyrimidine-6-carbonitrile], for which the IC50 at A2A receptor was 667 nM; on A2B receptor it was 1340 nM. Turning to `Cc1nn2c(N)c(C#N)c(NCCc3cccn(CCO)c3=O)nc2c1Cl` [Example 93, 7-amino-3-chloro-5-((2-(1-(2-hydroxyethyl)-2-oxo-1,2-dihydropyridin-3-yl)ethyl)amino)-2-methylpyrazolo[1,5-a]pyrimidine-6-carbonitrile], the results for the IC50 at A2A receptor and on A2B receptor were 50 nM and 1230 nM, respectively.

With `CCCc1c(C)nn2c(N)c(C#N)c(NCCc3ccn(C4CCC4CO)n3)nc12` (single isomer, unassigned; (-)) [Example 165b, (−)-7-amino-5-((2-(1-(2-(hydroxymethyl)cyclobutyl)-1H-pyrazol-3-yl)ethyl)amino)-2-methyl-3-propylpyrazolo[1,5-a]pyrimidine-6-carbonitrile], the half-maximal inhibitory concentration (IC50) on A2A receptor turned out to be 1540 nM; on A2B receptor it was 9160 nM. With `Cc1nn2c(N)c(C#N)c(NCCc3ccn(C4CCC4CO)n3)nc2c1C` (racemic) [Example 103, (+−)-7-amino-5-((2-(1-(2-(hydroxymethyl)cyclobutyl)-1H-pyrazol-3-yl)ethyl)amino)-2,3-dimethylpyrazolo[1,5-a] pyrimidine-6-carbonitrile], the IC50 at A2A receptor turned out to be 100 nM; on A2B receptor it was 2590 nM. For the compound `Cc1nn2c(N)c(C#N)c(NCCc3ccn(C4COCC4CO)n3)nc2c1C` (single isomer, unassigned; (+)) [Example 133a, (+)-7-amino-5-((2-(1-(4-(hydroxymethyl)tetrahydrofuran-3-yl)-1H-pyrazol-3-yl)ethyl)amino)-2,3-dimethylpyrazolo[1,5-a]pyrimidine-6-carbonitrile], the IC50 was 554 nM on A2A receptor and 6690 nM on A2B receptor. On the same counts, the results for `Cc1nn2c(N)c(C#N)c(NCCc3ccn(C4(CO)CC4)n3)nc2c1CC1CC1` [Example 74, 7-amino-3-(cyclopropylmethyl)-5-((2-(1-(1-(hydroxymethyl)cyclopropyl)-1H-pyrazol-3-yl)ethyl)amino)-2-methylpyrazolo[1,5-a]pyrimidine-6-carbonitrile] are 398 nM and 1080 nM. Taken in the same sequence, the figures for `Cc1nn2c(N)c(C#N)c(NCCc3cccn(C)c3=O)nc2c1Cl` [Example 87, 7-amino-3-chloro-2-methyl-5-((2-(1-methyl-2-oxo-1,2-dihydropyridin 3-yl)ethyl)amino) pyrazolo[1,5-a]pyrimidine-6-carbonitrile] were 80 nM and 1760 nM.

Regarding `Cc1cccc(CCNc2nc3c(Cl)c(C)nn3c(N)c2C#N)n1` [Example 119, 7-amino-3-chloro-2-methyl-5-((2-(6-methylpyridin-2-yl)ethyl)amino) pyrazolo[1,5-a]pyrimidine-6-carbonitrile], the values for the IC50 on A2A receptor and on A2B receptor were 260 nM and 3410 nM, respectively. Consider `Cc1nn2c(N)c(C#N)c(NCCc3ccn(C4CCC4CO)n3)nc2c1CC1CC1` (stereo not drawn) [Example 116, 7-amino-3-(cyclopropylmethyl)-5-((2-(1-(2-(hydroxymethyl)cyclobutyl)-1H-pyrazol-3-yl)ethyl)amino)-2-methylpyrazolo[1,5-a]pyrimidine-6-carbonitrile], for which the IC50 is 427 nM on A2A receptor and 2100 nM at A2B receptor. As to `CCc1c(C)nn2c(N)c(C#N)c(NCCc3ccc(F)c(CO)n3)nc12` [Example 91, 7-amino-3-ethyl-5-((2-(5-fluoro-6-(hydroxymethyl)315yridine-2-yl)ethyl)amino)-2-methylpyrazolo[1,5-a]pyrimidine-6-carbonitrile], the results for the IC50 at A2A receptor and at A2B receptor were 628 nM and 1620 nM, respectively. As to `CCc1c(C)nn2c(N)c(C#N)c(NCCc3ccn(CCC[S+](C)[O-])n3)nc12` (single isomer, unassigned; (+)) [Example 162b, (+)-7-amino-3-ethyl-2-methyl-5-((2-(1-(3-(methylsulfinyl)propyl)-1H-pyrazol-3-yl)ethyl)amino)pyrazolo[1,5-a]pyrimidine-6-carbonitrile], the IC50 on A2A receptor stood at 1230 nM; on A2B receptor, 2730 nM. On to `CCc1c(C)nn2c(N)c(C#N)c(NCCc3cc(C)n(C4(CO)CC4)n3)nc12` [Example 76, 7-amino-3-ethyl-5-((2-(1-(1-(hydroxymethyl)cyclopropyl)-5-methyl-1H-pyrazol-3-yl)ethyl)amino)-2-methylpyrazolo[1,5-a]pyrimidine-6-carbonitrile], for which the IC50 at A2A receptor stood at 50 nM; on A2B receptor, 1590 nM. For `CCc1c(C)nn2c(N)c(C#N)c(NCCc3ccn(C4(CNCC[S+](C)[O-])CC4)n3)nc12` (single isomer, unassigned; (+)) [Example 163b, (+)-7-amino-3-ethyl-2-methyl-5-((2-(1-(1-(((2-(methylsulfinyl)ethyl)amino)methyl)cyclopropyl)-1H-pyrazol-3-yl)ethyl)amino) pyrazolo[1,5-a]pyrimidine-6-carbonitrile], the IC50 at A2A receptor was 82 nM; at A2B receptor, 12200 nM. On the same counts, the results for `CCc1c(C)nn2c(N)c(C#N)c(NCCc3ccn(C4CC(CO)C4)n3)nc12` (stereo not drawn) [Example 123, 7-amino-3-ethyl-5-((2-(1-(3-(hydroxymethyl)cyclobutyl)-1H-pyrazol-3-yl)ethyl)amino)-2-methylpyrazolo[1,5-a]pyrimidine-6-carbonitrile] are 405 nM and 1580 nM.

Consider `CCc1c(C)nn2c(N)c(C#N)c(NCCc3cccc(CCO)n3)nc12` [Example 139, 7-amino-3-ethyl-5-((2-(6-(2-hydroxyethyl)pyridine-2-yl)ethyl)amino)-2-methylpyrazolo[1,5-a]pyrimidine-6-carbonitrile], for which the IC50 worked out at 165 nM on A2A receptor and 482 nM at A2B receptor. For `Cc1nn2c(N)c(C#N)c(NCCc3ccn(C4CCCC4CN)n3)nc2c1Cl` (stereo not drawn) [Example 118, 7-amino-5-((2-(1-(2-(aminomethyl)cyclopentyl)-1H-pyrazol-3-yl)ethyl)amino)-3-chloro-2-methylpyrazolo[1,5-a] pyrimidine-6-carbonitrile], the results for the IC50 on A2A receptor and on A2B receptor were 78 nM and 7850 nM, respectively. On the same counts, the results for `CCc1c(C)nn2c(N)c(C#N)c(NCCc3cccn(C)c3=O)nc12` [Example 88, 7-amino-3-ethyl-2-methyl-5-((2-(1-methyl-2-oxo-1,2-dihydropyridin-3-yl)ethyl)amino) pyrazolo[1,5-a]pyrimidine-6-carbonitrile] are 286 nM and 1300 nM.

`CCc1cnn2c(N)c(C#N)c(NCCc3ccn(C4(CO)CC4)n3)nc12` [Example 71, 7-amino-3-ethyl-5-((2-(1-(1-(hydroxymethyl)cyclopropyl)-1H-pyrazol-3-yl)ethyl)amino) pyrazolo[1,5-a] pyrimidine-6-carbonitrile]: the results for the IC50 at A2A receptor and at A2B receptor were 158 nM and 2820 nM, respectively. Consider `Cc1nn2c(N)c(C#N)c(NCCc3ccn(C4CCCC4CO)n3)nc2c1Cl` (stereo not drawn) [Example 114, 7-amino-3-chloro-5-((2-(1-(2-(hydroxymethyl)cyclopentyl)-1H-pyrazol-3-yl)ethyl)amino)-2-methylpyrazolo[1,5-a]pyrimidine-6-carbonitrile], for which the IC50 on A2A receptor is 96 nM; on A2B receptor, 4380 nM. Taken in the same sequence, the figures for `CCc1c(C)nn2c(N)c(C#N)c(NCCc3cccn(CCOC)c3=O)nc12` [Example 107, 7-amino-3-ethyl-5-((2-(1-(2-methoxyethyl)-2-oxo-1,2-dihydropyridin-3-yl)ethyl)amino)-2-methylpyrazolo[1,5-a] pyrimidine-6-carbonitrile] were 224 nM and 1550 nM. Taken in the same sequence, the figures for `CCc1c(C)nn2c(N)c(C#N)c(NCCc3cccc(OCCO)n3)nc12` [Example 150, 7-amino-3-ethyl-5-((2-(6-(2-hydroxyethoxy)pyridin-2-yl)ethyl)amino)-2-methylpyrazolo[1,5-a] pyrimidine-6-carbonitrile] were 1150 nM and 1630 nM. For the compound `Cc1nn2c(N)c(C#N)c(NCCc3ccn(C4COCC4CO)n3)nc2c1C` (racemic) [Example 132, (+−)-7-amino-5-((2-(1-(4-(hydroxymethyl)tetrahydrofuran-3-yl)-1H-pyrazol-3-yl)ethyl)amino)-2,3-dimethylpyrazolo[1,5-a]pyrimidine-6-carbonitrile], the IC50 at A2A receptor amounted to 248 nM. On the same count and under the same terms, under `CCc1c(C)nn2c(N)c(C#N)c(NCCc3cccc(CNCCOC)n3)nc12` [Example 96, 7-amino-3-ethyl-5-((2-(6-(((2-methoxyethyl)amino)methyl)321yridine-2-yl)ethyl)amino)-2-methylpyrazolo[1,5-a]pyrimidine-6-carbonitrile] stands 456 nM. At A2B receptor, `Cc1nn2c(N)c(C#N)c(NCCc3cccc(CNCCO)n3)nc2c1C` [Example 105, 7-amino-5-((2-(6-(((2-hydroxyethyl)amino)methyl)pyridin-2-yl)ethyl)amino)-2,3-dimethylpyrazolo[1,5-a]pyrimidine-6-carbonitrile] had an IC50 of 3870 nM.
